Patent US10723744B2, “Transplantation therapies” (Aphios Corporation, priority 2007, dated 2020)
Entries after “also recorded” stand apart in the source; their conditions may differ. Like-named read-outs stand apart in the source and are kept apart here.

Assays:
[1] = system: PKC-ε siRNA nucleofected HUVEC; assay: LTB4 induced neutrophil migration across PKC-ε siRNA nucleofected HUVEC; format: cell-based, human; settings: 1 hour pretreatment
Protocol: (§1) HUVECs were pretreated with Go-6983 (1, 10, 100 nM), or Go-6976 (1, 10, 100 nM) for 30 minutes, then spiked with 100 nM Bryostatin-1 for 1 hour. HUVECs previously nucleofected with PKC-δ, -ε, or control siRNA were just treated in Bryostatin-1 for 1 hour. HUVECs were washed three times and placed in a new plate containing either 500 μL 100 nM LTB4, or HBSS alone for control. Neutrophils were allowed to migrate for 3 h at 37° C. Migration was stopped by removing the inserts and migration was measured using the MPO assay.
(§2) Neutrophil migration was measured using myeloperoxidase (MPO) analysis. Cell culture inserts were first removed and plates were spun at 1,500 RPM for 5 min. The supernatant was removed, and MPO activity was measured using TMB/peroxide as chromogen. The reaction was stopped with sulfuric acid and absorbance was read at 450 nm using a microplate reader. All experiments were performed n=6. Data was expressed as “% neutrophil migration”, which allowed cumulative statistical analysis to be done and account for unpreventable batch-to-batch variations.
(§3) Optimum nucleofection parameters were determined using nucleofection of a control vector pmaxGFP. Using fluorescence microscopy and flow cytometry, 2 μg vector/500,000 cells nucleofected yielded the highest nucleofection (data not shown). HUVECs were grown to 70% confluency, trypsinized, and then counted. […]

HMECs [2] = assay: Time course of protection against LTB4 induced PMN TEM after 1 h pretreatment, HMECs; format: cell-based, human; settings: for time after pretreatment up to which LTB4 induced migration is reduced: 100 nM, 1 h pretreatment, washed, tested at 0, 24, 48 hours; for time after pretreatment for which reduction in LTB4 induced migration is maintained: single 1 h 100 nM pretreatment
Protocol: FIG. 6 graphically depicts protection against LTB4 induced PMN TEM with PMA up to 48 h after pretreatment. HMECs were pretreated for 1 h with PMA and washed with HBSS three times to remove PMA prior to replacement of culture medium. Neutrophil migration studies were then performed at 0, 24, or 48 hours. Migration was stimulated by adding 500,000 neutrophils to the top well and 100 nM LTB4 to the lower well at 0, 24, and 48 hours after PMA pretreatment. […] PMA (100 nM, (10^−7M) reduced LTB4 induced migration up to 48 hours after 1 h of endothelial-specific pretreatment (***p<0.001).
Referring now to FIG. 7, FIG. 7 graphically depicts protection from LTB4 induced PMN TEM with Bryostatin-1 up to 48 hours after pretreatment. HMECs were pretreated for 1 h with Bryostatin-1 and washed with HBSS three times to remove Bryostatin-1 prior to replacement of culture medium. Neutrophil migration studies were then performed at 0, 24, or 48 hours. Migration was stimulated by adding 500,000 neutrophils to the top well and 100 nM LTB4 to the lower well at 0, 24, and 48 hours after Bryostatin-1 pretreatment. […] Bryostatin-1 (100 nM) reduced LTB4 induced migration up to 48 hours after 1 hour endothelial pretreatment (***p<0.001).
(§4) At confluency, HUVECs were treated for 1 h at 37° C. with Bryostatin-1 (10 nM, 100 nM) in EGM or EGM alone. Inserts were washed three times with HBSS (to reduce drug effects on the neutrophils) and migration assays were ran at t=0, 24, or 48 h. After time elapsed, HUVECs were placed in a new plate containing either 500 μL 100 nM LTB4 or HBSS alone for control. 500 μL HBSS was then added to the top well and spiked with 500,000 neutrophils. Neutrophils were allowed to migrate for 3 h at 37° C. Migration was stopped by removing the inserts and migration was measured using the MPO assay.
as §2

HUVECs [3] = assay: Neutrophil TEM restoration studies with PKC inhibitors; format: cell-based, human; settings: HUVEC; for restoration of PMN TEM in response to LTB4 by PKC inhibitors (reversal of Bryostatin-1 protection): inhibitor pretreatment (Go-6983, Go-6976: 1, 10, 100 nM), then 100 nM Bryostatin-1
Protocol: as §1, §2

[4] = cited from earlier work
HMEC = assay: Alamar blue endothelial viability assay, HMEC; format: cell-based, human; settings: single 1 h 100 nM treatment; time points 1, 24, 48 h
Protocol: (§5) The Alamar blue assay was used to determine endothelial viability after pharmacological intervention. Alamar blue contains a REDOX indicator that results in a color change upon chemical reduction by cellular metabolic activity. Endothelial cells were treated with Bryostatin-1 (100 nM) for 1 h and washed three times with HBSS. Alamar blue (10%) in media was added for 2.5 h at T=0, 24, or 48 hours after drug treatment and the ratio of absorbances (570-600 nm) was measured to determine metabolic activity.

HUVEC = assay: Alamar blue endothelial viability assay, HUVEC; format: cell-based, human
Protocol: as §5

HMECs [5] = assay: LTB4 induced neutrophil migration across HMEC monolayers (transwell, MPO assay); format: cell-based, human; settings: 100 nM LTB4; for LTB4 induced neutrophil migration: HMECs on transwells, 1 h pretreatment 100 nM or 10 nM (PMA: 100, 10 or 1 nM), 3 h; for LTB4 induced neutrophil migration (PMN TEM) / LTB4 induced neutrophil TEM: HMECs; for LTB4 induced neutrophil migration (PMN TEM): 1 h pretreatment at 1 nM; for LTB4 induced neutrophil TEM: 1 h pretreatment, higher doses (100 nM)
Protocol: (§6) At confluency HMECs were treated for 1 h at 37° C. with Bryostatin-1 (10 nM, 100 nM) in MCDB-131 media or MCDB-131 media alone. Inserts were washed three times with Hank's Balanced Salt Solution (HBSS) (to eliminate drug effects on the neutrophils) and placed in a new plate containing either 500 μL 100 nM LTB4, or HBSS alone for control. 500 μL HBSS was then added to the top well and spiked with 500,000 neutrophils. For TNF-α experiments, HMECs were left in 20 ng/ml TNF-α in MCDB-131 for 24 h TNF-α was removed and HMECs washed three times. HMECs were treated for 1 h with Bryostatin-1 in endothelial growth medium (EGM) (10 nM, 100 nM). The drug was removed and cells were washed three times. 500 μL HBSS was added to both upper and lower chambers and spiked with 500,000 neutrophils. Neutrophils were allowed to migrate for 3 h at 37° C. Migration was stopped by removing the inserts and migration was measured using the myeloperoxidase (MPO) assay.
as §2
(§7) Confluent HMEC monolayers were plated on 48-well plates for adhesion studies, transwells for migration studies, and pretreated with a variety of pharmacological inhibitors and activators for 1 hour. Monolayers were washed three times with HBSS to remove all drug effects on the endothelium. To initiate migration, 100 nM LTB4 was added to the lower compartment and 500,000 neutrophils were added to the upper compartment and allowed to migrate for 3 h. For adhesion assays, LTB4 was added along with 500,000 neutrophils and allowed to adhere for 1 h (time of max. adhesion as determined in FIG. 1). […] The data are shown as % change in migration and adhesion as assessed by MPO assay. All values are expressed as means±SE. Data were analyzed using a one-way ANOVA with Bonferroni corrections for multiple comparisons. Probability (p) values of <0.05 were considered significant. ***p<0.001 vs. LTB4; **p<0.01 vs. LTB4; **p<0.05 vs. LTB4; n=4 for all experiments.

HMECs [6] = format: cell-based, human; settings: for TNF-α induced neutrophil TEM (Type II migration): HMECs, 24 h TNF-α 10 or 20 ng/ml, 1 hour pretreatment with 100 nM
Protocol: as §6, §2

HUVECs [7] = assay: Time course of protection against LTB4 induced PMN TEM after 1 h pretreatment, HUVECs; format: cell-based, human; settings: single 1 h 100 nM pretreatment
Protocol: as §4, §2

[8] = system: PKC-δ siRNA nucleofected HUVEC; assay: LTB4 induced neutrophil migration across PKC-δ siRNA nucleofected HUVEC; format: cell-based, human; settings: 100 nM, 1 hour
Protocol: as §1, §2, §3

HMEC monolayers = assay: LTB4 induced neutrophil adhesion to the endothelial monolayer; format: cell-based, human; settings: data not shown
Protocol: as §7

T84 intestinal epithelia = settings: cited from earlier work
[9] = system: endothelial and epithelial cells; settings: several types of endothelial and epithelial cells; cited from earlier work
endothelial cells = settings: greater effect seen with PKC-α inhibition; cited from earlier work
[10] = single 1 h 100 nM treatment, time points 1, 24, 48 h (PMA: except 48 h)

CCC/C=C/C=C/C(=O)O[C@H]1/C(=C/C(=O)OC)C[C@H]2C[C@H]([C@@H](C)O)OC(=O)C[C@H](O)C[C@@H]3C[C@H](OC(C)=O)C(C)(C)[C@](O)(C[C@@H]4C/C(=C/C(=O)OC)C[C@H](/C=C/C(C)(C)[C@]1(O)O2)O4)O3 [Bryostatin-1]
LTB4 induced neutrophil migration after pretreatment, PKC-ε knocked down [1]: did not restore LTB4 induced migration; also recorded: still suppresses migration | time after pretreatment up to which LTB4 induced migration is reduced (HMECs [2]): up to 48 hours | time after pretreatment for which reduction in LTB4 induced migration is maintained (HMECs [2]): at least 48 h | time after pretreatment for which reduction in LTB4 induced migration is maintained (HMECs [2]; listed as Bryostatin): 48 h | LTB4 induced neutrophil migration (HUVECs [3]; 100 nM Bryostatin-1, 1 hour, 100 nM LTB4, 3 h): reversed; also recorded: significantly suppressed LTB4 induced migration | cardiovascular disturbances or edema ([4]; Phase II cancer trials): no cardiovascular disturbances or evidence of edema have been observed | major side effects associated with use ([4]; Phase II cancer trials): myalgias, nausea, and vomiting | adverse effects ([4]; healthy subjects and cancer patients, dosing ranges higher than for 100 ng/ml plasma level): no adverse effects | HMEC viability (HMEC): no effect | HUVEC viability (HUVEC; [10]): no effect | LTB4 induced neutrophil migration (HMECs [5]): reduced LTB4 induced migration in a dose dependent manner | LTB4 induced neutrophil migration (PMN TEM) (HMECs [5]): did not reduce PMN TEM | LTB4 induced neutrophil TEM (HMECs [5]): attenuated neutrophil TEM to levels below that of basal migration | migration induced by a combination of TNF-α pretreatment and LTB4 gradient (HMECs [6]; 24 h TNF-α pretreatment and 100 nM LTB4 gradient, data not shown): reduced migration | TNF-α induced neutrophil TEM (Type II migration) (HMECs [6]): attenuated Type II migration; also recorded: totally attenuated | time after pretreatment for which reduction in LTB4 induced migration is maintained (HUVECs [7]): 48 h | LTB4 induced neutrophil migration after pretreatment, PKC-δ knocked down [8]: restored the normal level of neutrophil trans endothelial migration | LTB4 induced adhesion to the endothelial monolayer (HMEC monolayers): Neither PMA, nor Bryostatin-1 reduced LTB4 induced adhesion | barrier function (T84 intestinal epithelia): enhances barrier function | barrier loss induced by TNF-α (T84 intestinal epithelia): inhibits barrier loss

CN(C)CCCn1cc(C2=C(c3c[nH]c4ccccc34)C(=O)NC2=O)c2ccccc21 [GF10923X]
restoration of PMN TEM in response to LTB4 by PKC inhibitors (reversal of Bryostatin-1 protection) (HUVECs [3]): did not restore PMN TEM

Cn1c2ccccc2c2c3c(c4c5ccccc5n(CCC#N)c4c21)CNC3=O [GO-6976]
restoration of PMN TEM in response to LTB4 by PKC inhibitors (reversal of Bryostatin-1 protection) (HUVECs [3]): did not restore PMN TEM

COc1ccc2c(c1)c(C1=C(c3c[nH]c4ccccc34)C(=O)NC1=O)cn2CCCN(C)C [Go-6983]
Bryostatin-1 mediated reduction in migration towards LTB4, effect of PKC inhibitor pretreatment (HUVECs [3]; inhibitor 10 or 100 nM, 30 minutes before 100 nM Bryostatin-1): prevented | restoration of PMN TEM in response to LTB4 by PKC inhibitors (reversal of Bryostatin-1 protection) (HUVECs [3]): dose dependently restored neutrophil migration | restoration of PMN TEM in response to LTB4 by PKC inhibitors (reversal of Bryostatin-1 protection) (HUVECs [3]; listed as G0-6983): dose dependently reversed

CCCCCCCCCCCCCC(=O)O[C@@H]1[C@@H](C)[C@@]2(O)[C@@H](C=C(CO)C[C@]3(O)C(=O)C(C)=C[C@@H]23)[C@@H]2C(C)(C)[C@]12OC(C)=O [PMA, phorbol myristate acetate]
trans endothelial resistance (TER) [9]: decrease trans endothelial resistance (TER) | LTB4 induced neutrophil migration after pretreatment, PKC-ε knocked down [1]: did not restore LTB4 induced migration | time after pretreatment up to which LTB4 induced migration is reduced (HMECs [2]): up to 48 hours | HMEC viability (HMEC): no effect | HUVEC viability (HUVEC; 48 h after a single 1 h treatment with 100 nM): slight but significant reduction in viability | HUVEC viability (HUVEC; [10]): no effect | LTB4 induced neutrophil migration (HMECs [5]): reduced LTB4 induced migration in a dose dependent manner | LTB4 induced neutrophil migration (PMN TEM) (HMECs [5]): did not reduce PMN TEM; also recorded: had no effect on LTB4 induced migration | LTB4 induced neutrophil TEM (HMECs [5]): attenuated neutrophil TEM to levels below that of basal migration | migration induced by a combination of TNF-α pretreatment and LTB4 gradient (HMECs [6]): reduced migration | TNF-α induced neutrophil TEM (Type II migration) (HMECs [6]): attenuated Type II migration; also recorded: totally attenuated | time after pretreatment for which reduction in LTB4 induced migration is maintained (HUVECs [7]): up to 48 h | LTB4 induced adhesion to the endothelial monolayer (HMEC monolayers): Neither PMA, nor Bryostatin-1 reduced LTB4 induced adhesion

CC(=O)c1c(O)c(C)c(O)c(Cc2c(O)c3c(c(C(=O)/C=C/c4ccccc4)c2O)OC(C)(C)C=C3)c1O [Rottlerin]
restoration of PMN TEM in response to LTB4 by PKC inhibitors (reversal of Bryostatin-1 protection) (HUVECs [3]): did not restore PMN TEM

hypocrellin A
increased permeability caused by high glucose and PMA (endothelial cells): reduced this increased permeability
